Reference: patent US10765114B2, “4-amino-6-(pyridyl and 2-substitutedphenyl)-picolinates and 6-amino-2-(pyridyl and 2-substitutedphenyl)-pyrimidine-4-carboxylates and their use as herbicides” (Dow AgroSciences LLC, priority 2013, dated 2020)

Legend:
Experiment in all cases: Post-Emergent Test III (Wheat and Barley)
HORSS = format: in vivo; details: crop; for Visual Growth Reduction (%) 21 Days After Application, HORSS: HORSS barley (Hordeum vulgare), post-emergent
Method in brief: (§1)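 Post-emergence foliar spray, 187 L/ha, serial ½×–1/16× rates; plants at 2nd–3rd true leaf; greenhouse ~18 °C day/17 °C night, 14 h light; subirrigated after treatment. Visual injury 0–100% at 21 d vs untreated; GR values by probit analysis over multiple rates.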

TRZSS = format: in vivo; details: crop; for Visual Growth Reduction (%) 21 Days After Application, TRZSS: TRZSS wheat (Triticum aestivum), post-emergent
Method in brief: as §1

BRSSS = format: in vivo; details: for Visual Growth Reduction (%) 21 Days After Application, BRSSS: BRSSS oil seed rape (Brassica napus), post-emergent
Method in brief: as §1

[1] = test system: LAMPU (purple deadnettle); format: in vivo, Lamium purpureum; details: for Visual Growth Reduction (%) 21 Days After Application, LAMPU: LAMPU purple deadnettle (Lamium purpureum), post-emergent
Description: (§2) Seeds of the desired test plant species were planted in Sun Gro MetroMix® 306 planting mixture, which typically has a pH of 6.0 to 6.8 and an organic matter content of about 30 percent, in plastic pots with a surface area of 103.2 square centimeters (cm^2). When required to ensure good germination and healthy plants, a fungicide treatment and/or other chemical or physical treatment was applied. The plants were grown for 7-36 days in a greenhouse with an approximate 14 h photoperiod which was maintained at about 18° C. during the day and 17° C. during the night. Nutrients and water were added on a regular basis and supplemental lighting was provided with overhead metal halide 1000-Watt lamps as necessary. The plants were employed for testing when they reached the second or third true leaf stage.
(§3) A weighed amount, determined by the highest rate to be tested, of each test compound was placed in a 25 mL glass vial and was dissolved in 4 mL of a 97:3 v/v mixture of acetone and DMSO to obtain concentrated stock solutions. […] The concentrated stock solutions obtained were diluted with 20 mL of an aqueous mixture containing acetone, water, isopropyl alcohol, DMSO, Agri-Dex crop oil concentrate, and X-77 surfactant in a 48:39:10:1.5:1.5:0.02 v/v ratio to obtain spray solutions containing the highest application rates. Additional application rates were obtained by serial dilution of 12 mL of the high rate solution into a solution containing 2 mL of 97:3 v/v mixture of acetone and DMSO and 10 mL of an aqueous mixture containing acetone, water, isopropyl alcohol, DMSO, Agri-Dex crop oil concentrate, and X-77 surfactant in a 48:39:10:1.5:1.5:0.02 v/v ratio to obtain ½×, ¼×, ⅛× and 1/16× rates of the high rate. Compound requirements are based upon a 12 mL application volume at a rate of 187 liters per hectare (L/ha). Formulated compounds were applied to the plant material with an overhead Mandel track sprayer equipped with 8002E nozzles calibrated to deliver 187 L/ha over an application area of 0.503 square meters at a spray height of 18 inches (43 cm) above the average plant canopy height. Control plants were sprayed in the same manner with the solvent blank.
(§4) The treated plants and control plants were placed in a greenhouse as described above and watered by subirrigation to prevent wash-off of the test compounds. After 21 dAYS, the condition of the test plants as compared with that of the untreated plants was determined visually and scored on a scale of 0 to 100 percent where 0 corresponds to no injury and 100 corresponds to complete kill and presented as indicated in Table A.
(§5) By applying the well-accepted probit analysis as described by J. Berkson in Journal of the American Statistical Society, 48, 565 (1953) and by D. Finney in “Probit Analysis” Cambridge University Press (1952), herbicidal injury of a specific compound at various rates can be used to calculate GR10, GR20, GR50, GR80 and GR90 values, which are defined as growth reduction factors that correspond to the effective dose of herbicide required to provide plant growth reduction (GR) of 10 percent, 20 percent, 50 percent, 80 percent and 90 percent, respectively. Probit analysis was applied to data collected from multiple dose rates of individual compounds utilizing the procedures explained in the following examples. The analysis of those dose rates is captured in the following tables.

POLCO (wild buckwheat) = format: in vivo, Polygonum convolvulus; details: for Visual Growth Reduction (%) 21 Days After Application, POLCO: POLCO wild buckwheat (Polygonum convolvulus), post-emergent
Description: as §2, §3, §4, §5

KCHSC (kochia) = format: in vivo, Kochia scoparia
Method in brief: as §1

For `Nc1cc(-c2ccc(Cl)c(Cl)c2Cl)nc(C(=O)O)c1Cl` [Compound 93], the “Visual Growth Reduction (%) 21 Days After Application, HORSS” value (HORSS; 17.5 g ai/ha) was “C (75-84)”, the “Visual Growth Reduction (%) 21 Days After Application, HORSS” value (HORSS; 35 g ai/ha) was “B (85-94)” and the “Visual Growth Reduction (%) 21 Days After Application, HORSS” value (HORSS; 70 g ai/ha) was “B (85-94)”. For the same compound, the “GR10, HORSS” value (HORSS; HORSS barley, growth reduction of 10%, probit analysis, 21 days) was 1 g ai/ha, the “GR20, HORSS” value (HORSS; HORSS barley, growth reduction of 20%, probit analysis, 21 days) was 1 g ai/ha and the “Visual Growth Reduction (%) 21 Days After Application, TRZSS” value (TRZSS; 17.5 g ai/ha) was “C (75-84)”. The “Visual Growth Reduction (%) 21 Days After Application, TRZSS” value (TRZSS; 35 g ai/ha) was “B (85-94)”, the “Visual Growth Reduction (%) 21 Days After Application, TRZSS” value (TRZSS; 70 g ai/ha) was “B (85-94)” and the “GR10, TRZSS” value (TRZSS; TRZSS wheat, growth reduction of 10%, probit analysis, 21 days) was 1 g ai/ha. The “GR20, TRZSS” value (TRZSS; TRZSS wheat, growth reduction of 20%, probit analysis, 21 days) was 1 g ai/ha, the “Visual Growth Reduction (%) 21 Days After Application, BRSSS” value (BRSSS; 17.5 g ai/ha) was “A (95-100)” and the “Visual Growth Reduction (%) 21 Days After Application, BRSSS” value (BRSSS; 35 g ai/ha) was “A (95-100)”. For the same compound, the “Visual Growth Reduction (%) 21 Days After Application, BRSSS” value (BRSSS; 70 g ai/ha) was “A (95-100)”, the “GR50, BRSSS” value (BRSSS; BRSSS, growth reduction of 50%, probit analysis, 21 days) was 0 g ai/ha and the “GR80, BRSSS” value (BRSSS; BRSSS, growth reduction of 80%, probit analysis, 21 days) was 3 g ai/ha. The “GR90, BRSSS” value (BRSSS; BRSSS, growth reduction of 90%, probit analysis, 21 days) was 11 g ai/ha, the “Visual Growth Reduction (%) 21 Days After Application, LAMPU” value ([1]; 17.5 g ai/ha) was “A (95-100)” and the “Visual Growth Reduction (%) 21 Days After Application, LAMPU” value ([1]; 35 g ai/ha) was “A (95-100)”. The “Visual Growth Reduction (%) 21 Days After Application, LAMPU” value ([1]; 70 g ai/ha) was “A (95-100)”, the “GR50, LAMPU” value ([1]; LAMPU, growth reduction of 50%, probit analysis, 21 days) was 1 g ai/ha and the “GR80, LAMPU” value ([1]; LAMPU, growth reduction of 80%, probit analysis, 21 days) was 2 g ai/ha. For the same compound, the “GR90, LAMPU” value ([1]; LAMPU, growth reduction of 90%, probit analysis, 21 days) was 8 g ai/ha, the “Visual Growth Reduction (%) 21 Days After Application, POLCO” value (POLCO (wild buckwheat); 17.5 g ai/ha) was “B (85-94)” and the “Visual Growth Reduction (%) 21 Days After Application, POLCO” value (POLCO (wild buckwheat); 35 g ai/ha) was “B (85-94)”. For the same compound, the “Visual Growth Reduction (%) 21 Days After Application, POLCO” value (POLCO (wild buckwheat); 70 g ai/ha) was “A (95-100)”, the “GR50, POLCO” value (POLCO (wild buckwheat); POLCO, growth reduction of 50%, probit analysis, 21 days) was 2 g ai/ha and the “GR80, POLCO” value (POLCO (wild buckwheat); POLCO, growth reduction of 80%, probit analysis, 21 days) was 7 g ai/ha. The “GR90, POLCO” value (POLCO (wild buckwheat); POLCO, growth reduction of 90%, probit analysis, 21 days) was 13 g ai/ha, the pest or weed control at 17.5 g/ha (KCHSC (kochia); Bassia scoparia, post-emergence, 504 h, KCHSC kochia (Kochia scoparia), 17.5 g ai/ha, post-emergent, read-out: Visual Growth Reduction (%) 21 Days After Application, KCHSC) was 85 to 94% and the pest or weed control at 35 g/ha (KCHSC (kochia); Bassia scoparia, post-emergence, 504 h, KCHSC kochia (Kochia scoparia), 35 g ai/ha, post-emergent, read-out: Visual Growth Reduction (%) 21 Days After Application, KCHSC) was 85 to 94%. The pest or weed control at 70 g/ha (KCHSC (kochia); Bassia scoparia, post-emergence, 504 h, KCHSC kochia (Kochia scoparia), 70 g ai/ha, post-emergent, read-out: Visual Growth Reduction (%) 21 Days After Application, KCHSC) was 95 to 100%, the “GR50, KCHSC” value (KCHSC (kochia); KCHSC, growth reduction of 50%, probit analysis, 21 days) was 2 g ai/ha and the “GR80, KCHSC” value (KCHSC (kochia); KCHSC, growth reduction of 80%, probit analysis, 21 days) was 10 g ai/ha. For the same compound, the “GR90, KCHSC” value (KCHSC (kochia); KCHSC, growth reduction of 90%, probit analysis, 21 days) was 27 g ai/ha.
